Assay results reported in ChEMBL document CHEMBL1909592, “Targeting the prostaglandin F2α receptor for preventing preterm labor with azapeptide tocolytics” (J Med Chem, 2011).
pIC50: −log10 of the molar value. Activity calls are given as the source filed them. No cut-off for these calls is given here. Square brackets hold non-standard residues; d marks the D form. Peptide text beside a SMILES is read from it. * marks the point of attachment. dCit = NC(=O)NCCC[C@@H](N)C(=O)O; 3Pal = N[C@@H](Cc1cccnc1)C(=O)O; β3hF = N[C@H](CC(=O)O)Cc1ccccc1; PhAc = O=C(Cc1ccccc1)*; azaGly = NNC(=O)O

What was measured:
[1] = target: Prostaglandin F2-alpha receptor (Mus musculus) (UniProt P43117); assay: Antagonist activity at FP receptor in postpartum mouse myometrial strip assessed as inhibition of PGF-2alpha-induced uterine contractions; format: functional
Mus musculus [2] = assay: Inhibition of LPS-induced uterine contractions in pregnant CD-1 mouse assessed as time delay in preterm labor at 0.1 mg, ip administered as bolus dose immediately followed by 10 mg, sc; format: functional
Mus musculus [3] = assay: Inhibition of PGF-2alpha-induced uterine contractions in pregnant CD-1 mouse assessed as time delay in preterm labor at 0.1 mg, ip administered as bolus dose immediately followed by 10 mg, sc; format: functional
[4] = target: Prostaglandin F2-alpha receptor (Homo sapiens) (UniProt P43088); assay: Antagonist activity at human FP receptor expressed in HEK293 cells assessed as potentiation of PGF-2alpha-induced Galphaq-mediated PKC/ERK1/2 activation at 1 uM after 30 mins by Western blot analysis; format: functional, cell-based
[5] = target: Prostaglandin F2-alpha receptor (Homo sapiens) (UniProt P43088); assay: Antagonist activity at human FP receptor expressed in HEK293 cells assessed as inhibition of PGF-2alpha-mediated cell ruffling at 1 uM after 30 mins by immunofluorescence assay (reference value: 65.7 +/- 1.6 %); format: functional, cell-based
[6] = target: Prostaglandin F2-alpha receptor (Mus musculus, UniProt P43117); assay: Antagonist activity at FP receptor in mouse myometrial strip assessed as inhibition of PGF-2alpha-induced contractions; format: functional
[7] = target: Prostaglandin F2-alpha receptor (Bos taurus, UniProt P37289); assay: Antagonist activity at FP receptor in bovine myometrial strip assessed as inhibition of PGF-2alpha-induced contractions; format: functional
[8] = target: Prostaglandin F2-alpha receptor (Ovis aries, UniProt Q28905); assay: Antagonist activity at FP receptor in sheep myometrial strip assessed as inhibition of PGF-2alpha-induced contractions; format: functional
Mus musculus [9] = species: Mus musculus; assay: Inhibition of PGF-2alpha-induced uterine contractions in pregnant mouse assessed as time delay in preterm labor at 0.8 mg/day; format: functional
[10] = target: Prostaglandin F2-alpha receptor (Mus musculus) (UniProt P43117); details: 100 uM
Description: Antagonist activity at FP receptor in mouse myometrial strip assessed as inhibition of PGF-2alpha-induced contractions at 100 uM

[11] = target: Prostaglandin F2-alpha receptor (Bos taurus) (UniProt P37289); details: 100 uM
Description: Antagonist activity at FP receptor in bovine myometrial strip assessed as inhibition of PGF-2alpha-induced contractions at 100 uM

[12] = target: Prostaglandin F2-alpha receptor (Ovis aries) (UniProt Q28905); details: 100 uM
Description: Antagonist activity at FP receptor in sheep myometrial strip assessed as inhibition of PGF-2alpha-induced contractions at 100 uM

[13] = target: Prostaglandin F2-alpha receptor (Homo sapiens) (UniProt P43088); assay: Antagonist activity at human FP receptor expressed in HEK293 cells assessed as ERK1/2 activation at 1 uM after 30 mins by Western blot analysis; format: functional, cell-based
[14] = target: Prostaglandin F2-alpha receptor (Homo sapiens) (UniProt P43088); assay: Antagonist activity at human FP receptor expressed in HEK293 cells assessed as inhibition of cell ruffling at 1 uM after 30 mins by immunofluorescence assay; format: functional, cell-based
[15] = Antagonist activity at FP receptor in pig retina assessed as inhibition of PGF-2alpha induced microvascular contraction; format: functional, tissue-based, Sus scrofa
[16] = Antagonist activity at FP receptor in pig retina assessed as inhibition of PGF-2alpha induced microvascular contraction at 100 uM; format: functional; details: Sus scrofa

Sequence of Prostaglandin F2-alpha receptor (Homo sapiens) (P43088 whole entry): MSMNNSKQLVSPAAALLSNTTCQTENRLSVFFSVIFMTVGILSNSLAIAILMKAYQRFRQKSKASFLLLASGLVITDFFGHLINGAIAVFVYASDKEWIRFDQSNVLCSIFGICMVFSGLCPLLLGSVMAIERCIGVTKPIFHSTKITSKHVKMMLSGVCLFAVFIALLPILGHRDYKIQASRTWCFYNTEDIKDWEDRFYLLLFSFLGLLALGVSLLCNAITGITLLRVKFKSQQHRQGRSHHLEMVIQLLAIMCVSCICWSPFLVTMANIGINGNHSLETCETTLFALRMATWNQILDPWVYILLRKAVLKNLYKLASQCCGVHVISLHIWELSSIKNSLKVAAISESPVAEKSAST
Sequence of Prostaglandin F2-alpha receptor (Mus musculus) (P43117 whole entry): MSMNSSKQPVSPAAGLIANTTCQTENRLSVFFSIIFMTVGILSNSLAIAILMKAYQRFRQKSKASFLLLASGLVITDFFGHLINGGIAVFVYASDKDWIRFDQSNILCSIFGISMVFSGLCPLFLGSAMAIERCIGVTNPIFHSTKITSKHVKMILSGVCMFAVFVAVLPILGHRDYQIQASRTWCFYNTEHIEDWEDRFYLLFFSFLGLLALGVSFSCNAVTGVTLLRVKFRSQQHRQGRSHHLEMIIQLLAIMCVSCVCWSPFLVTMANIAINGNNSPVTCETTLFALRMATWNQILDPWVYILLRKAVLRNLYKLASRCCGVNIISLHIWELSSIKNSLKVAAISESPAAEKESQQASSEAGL
Sequence of Prostaglandin F2-alpha receptor (Ovis aries, UniProt Q28905) (Q28905 whole entry): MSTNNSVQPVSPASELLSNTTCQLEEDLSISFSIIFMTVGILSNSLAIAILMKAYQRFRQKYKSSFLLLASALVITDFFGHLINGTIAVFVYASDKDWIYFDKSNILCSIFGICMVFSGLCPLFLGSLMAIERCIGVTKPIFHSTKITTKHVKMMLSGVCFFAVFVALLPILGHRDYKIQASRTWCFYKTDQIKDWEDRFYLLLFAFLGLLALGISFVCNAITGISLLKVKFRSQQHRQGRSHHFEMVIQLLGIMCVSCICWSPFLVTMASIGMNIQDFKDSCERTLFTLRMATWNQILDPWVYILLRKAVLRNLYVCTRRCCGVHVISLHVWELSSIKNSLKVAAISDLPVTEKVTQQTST
Sequence of Prostaglandin F2-alpha receptor (Ovis aries) (Q28905 whole entry): as above
Sequence of Prostaglandin F2-alpha receptor (Mus musculus, UniProt P43117) (P43117 whole entry): as the sequence (P43117 whole entry) above
Sequence of Prostaglandin F2-alpha receptor (Bos taurus, UniProt P37289) (P37289 whole entry): as the sequence (Q28905 whole entry) above, with N5S, V7I, A13E, Q192E, N340D counted along it
Sequence of Prostaglandin F2-alpha receptor (Bos taurus) (P37289 whole entry): as the sequence (Q28905 whole entry) above, with N5S, V7I, A13E, Q192E, N340D counted along it

| SMILES | inhibition [1] | Activity [4] | inhibition [5] | also measured |
| --- | --- | --- | --- | --- |
| O=C(O)C[C@H](Cc1ccccc1)NC(=O)[C@H](Cc1cccnc1)NC(=O)[C@@H]1CCC[C@@H]2CC[C@H](NC(=O)Cc3ccccc3)C(=O)N21 | inactive |  |  |  |
| NC(=O)NCCC[C@@H](NC(=O)[C@H]1CC[C@H]2CC[C@@H](NC(=O)Cc3ccccc3)C(=O)N21)C(=O)N[C@@H](CC(=O)O)Cc1ccccc1 | inactive |  |  |  |
| O=C(O)C[C@H](Cc1ccccc1)NC(=O)[C@H](Cc1cccnc1)NC(=O)[C@@H]1CC[C@@H]2CC[C@H](NC(=O)Cc3ccccc3)C(=O)N21 | Active | Active | 40.3% | Time (Mus musculus [2]): 28 h; Time (Mus musculus [3]): 42 h |
| CC[C@@H](C)[C@@H](N)C(=O)N[C@H](CC(C)C)C(=O)NCC(=O)N[C@H](Cc1cnc[nH]1)C(=O)N[C@H](CCCNC(N)=O)C(=O)N[C@H](CC(=O)O)C(=O)N[C@H](Cc1ccc(O)cc1)C(=O)N[C@H](CCCCN)C(=O)O (H-[dI][dL]G[dH][dCit][dD][dY][dK]-OH) |  |  |  | pIC50 [6]: 7.89; pIC50 [7]: 7.89; pIC50 [8]: 7.89; Time (Mus musculus [9]): 48 h; inhibition [10]: > 85%; inhibition [11]: > 85%; inhibition [12]: > 85% |
| O=C(O)C[C@H](Cc1ccccc1)NC(=O)[C@H](Cc1cccnc1)NC(=O)[C@@H]1CCCN1C(=O)NNC(=O)Cc1ccccc1 (PhAc-[azaGly]P[3Pal][β3hF]-OH) | Active | Active | 37.5% | Activity [13]: inactive; inhibition [14]: inactive |
| O=C(O)C[C@H](Cc1ccccc1)NC(=O)[C@H](Cc1cccnc1)NC(=O)[C@@H]1CCCN1C(=O)N(Cc1ccccc1)NC(=O)Cc1ccccc1 | Active | Active | 37.4% | Activity [13]: inactive; inhibition [14]: inactive |
| C=CCN(NC(=O)Cc1ccccc1)C(=O)N1CCC[C@H]1C(=O)N[C@@H](Cc1cccnc1)C(=O)N[C@H](CC(=O)O)Cc1ccccc1 | inactive |  |  |  |
| CN(NC(=O)Cc1ccccc1)C(=O)N1CCC[C@H]1C(=O)N[C@@H](Cc1cccnc1)C(=O)N[C@H](CC(=O)O)Cc1ccccc1 | inactive |  |  |  |
| O=C(O)C[C@H](Cc1ccccc1)NC(=O)[C@H](Cc1cccnc1)NC(=O)[C@@H]1CCC[C@@H]2C[C@H](NC(=O)Cc3ccccc3)C(=O)N21 | inactive |  |  |  |
| NC(=O)NCCC[C@H](NC(=O)[C@H]1CC[C@H]2CC[C@@H](NC(=O)Cc3ccccc3)C(=O)N21)C(=O)N[C@H](CC(=O)O)Cc1ccccc1 | inactive |  |  |  |
| CC[C@@H](C)[C@@H](N)C(=O)N[C@H](CC(C)C)C(=O)NCC(=O)N[C@H](Cc1cnc[nH]1)C(=O)N[C@H](CCCNC(=N)N)C(=O)N[C@H](CC(=O)O)C(=O)N[C@H](Cc1ccc(O)cc1)C(=O)N[C@H](CCCCN)C(=O)O (H-[dI][dL]G[dH][dR][dD][dY][dK]-OH) |  |  |  | pIC50 [15]: 6.47; inhibition at 100 µM [16]: > 80% |
| C#CCN(NC(=O)Cc1ccccc1)C(=O)N1CCC[C@H]1C(=O)N[C@@H](Cc1cccnc1)C(=O)N[C@H](CC(=O)O)Cc1ccccc1 | Active | Active | 56.7% | Activity [13]: inactive; inhibition [14]: inactive |
